Assay results published in PubChem BioAssay AID2060901 (Molecular Pharmacology Branch, DTP, NCI, 2025).

Tested on: 422866-222-R5-J1-PDC complex spheroids viability
Assay: Anticancer human tumor 422866-222-R5-J1-PDC patient-derived pancreatic adenocarcinoma cell line growth inhibition [RAS]
Settings: for viability, T/C: stronger effect = lower value; for IC50: curve of first compound
Excerpt: RAS pathway inhibitors in Combinations in Complex Spheroids
A high-throughput screen of multi-cell type tumor spheroids was designed to identify active combinations of RAS pathway inhibitors and targeted small molecules. Complex spheroids include a stromal component modeled by human endothelial cells (HUVEC) and fibroblasts modeled by human mesenchymal stem cells (MSCs). The concentration ranges selected for each drug and investigational agent were based upon clinically achievable concentrations if the clinical Cmax of the agent was known.
Compounds. The drugs and investigational agents: abemaciclib (NSC768073), cobimetinib (NSC768068), divarasib (GDC6063, NSC841802), docetaxel (NSC628503), GDC-1971 (RLY-1971, NSC841576), gemcitabine (NSC613327), inavolisib (NSC800729), ipatasertib (NSC767898), KB-0742 (NSC834161), MRTX-1133 (NSC836407), osimertinib (NSC779217), RMC-4630 (NSC839698), RMC-6236 (NSC851965), RMC-6291 (NSC852671), Ro-3306 (NSC812927), sapanisertib (NSC764658), SN-38 (NSC673596), staurosporine (NSC755774), SY5609 (NSC837396), and tovorafenib (DAY101, NSC766906), were obtained from the National Cancer Institute (NCI) Developmental Therapeutics Program Chemical Repository. The FDA-approved anticancer drug set is available from the NCI Developmental Therapeutics Program. […] The stock solutions were prepared in dimethyl sulfoxide (DMSO, Sigma-Aldrich, St. Louis, MO, cat. D2650) at 800-fold the tested concentration and stored at -70 degrees C prior to their use. All drugs and investigational agents were tested over a range starting from a high concentration at or near the clinical Cmax and decreasing in half-log increments. If the clinical Cmax for an agent had not been determined, the highest concentration tested was 10 microM.
Cell Culture. All cells were maintained in an incubator at 37 degrees C and 5% CO2 with 95% humidity. The PDC lines were cultured according to standard operating procedures established by the NCI PDMR. All PDCs were thawed and cultured in Matrigel-coated flasks prepared with a working solution of 1X Ham's F-12 nutrient mix, without supplementation (Invitrogen, Waltham, MA, cat. 11765054), 100 U/mL penicillin-streptomycin (Invitrogen, cat. 15140122), and 2.5% Matrigel (Corning Inc., Corning, NY, cat. 354248) for the first three passages. The 362531-283-R-J2-PDC and 782815-120-R-J1-PDC lines were cultured in 6C/Colon 1B media, which includes advanced DMEM/F-12 (Thermo Fisher Scientific, cat. 12634028), 10 mM HEPES (Thermo Fisher Scientific, cat. 15630080), 1X GlutaMAX supplement (Thermo Fisher Scientific, cat. 35050061), 0.1 mg/mL primocin (InvivoGen, San Diego, CA, cat. ant-pm-2), 10% defined fetal bovine serum, heat inactivated (HyClone Laboratories Inc., Logan, UT, cat. SH30070.03HI), 50% L-WRN conditioned media (ATCC, cat. CRL-3276), 1.25 mM N-Acetyl-L-cysteine (Sigma-Aldrich, cat. A9165), 10 mM nicotinamide (Sigma-Aldrich, cat. N0636), 1X B-27 supplement (Thermo Fisher Scientific, cat. 17504044), 1X N-2 supplement (Thermo Fisher Scientific, cat. 17502048), 50 ng/mL human EGF (Thermo Fisher Scientific, cat. PHG0311), and 10 microM Y-27632 dihydrochloride (Tocris Bioscience, cat. 1254). The K12877-001-R-J1-PDC line was cultured in 6I media, which includes all 6C/Colon 1B media plus 10 ng/mL human FGF-10 (PeproTech, cat. 100-26), 1 ng/mL human FGF-2 (PeproTech, cat. 100-18B), 1 µM prostaglandin E2 (Tocris Bioscience, cat. 2296), […] hydrocortisone (Sigma-Aldrich, cat. H4001), and […] bovine insulin (Sigma-Aldrich, cat. I6634). The K86415-001-R-J1-PDC line was cultured in 6D media, which includes all 6C/Colon 1B media components minus the L-WRN conditioned media. The 485176-168-R4-J1-PDC was cultured in PANC media, which includes all 6C/Colon 1B media plus 100 ng/mL human FGF-10 (PeproTech, cat. 100-26), 500 nM SB-431542 (Selleckchem, cat. S1067), and 10 nM gastrin (Tocris Bioscience, cat. 3006). […]
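Note: spheroids exposed to compounds for 7 days.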
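Throughout, for viability, T/C: 100% = DMSO vehicle control viability.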

## Cc1nc(N2CCC3(CC2)COC(C)C3N)c(CO)nc1Sc1ccnc(N)c1Cl (configuration not stated)
Compound 0.1 µM
  viability, T/C: 65% [middle of 4 runs]
Compound 0.316 µM
  viability, T/C: 51% [middle of 4 runs]
Compound 1 µM
  viability, T/C: 52.8% [middle of 4 runs]
Compound 3.16 µM
  viability, T/C: 41.1% [middle of 4 runs]
Compound 10 µM
  viability, T/C: 43.5% [middle of 4 runs]

## C=CC(=O)Nc1cc(Nc2nccc(-c3cn(C)c4ccccc34)n2)c(OC)cc1N(C)CCN(C)C + C#Cc1c(F)ccc2cc(O)cc(-c3ncc4c(N5CC6CCC(C5)N6)nc(OCC56CCCN5CC(F)C6)nc4c3F)c12
Second compound 0.0316 µM
  IC50: > 1000 nM
Second compound 0.1 µM
  IC50: > 1000 nM
Second compound 0.316 µM
  IC50: 94.2 nM
Second compound 1 µM
  IC50: < 3.16 nM
Second compound 3.16 µM
  IC50: < 3.16 nM
Second compound 10 µM
  IC50: < 3.16 nM
Second compound 0.0316 µM, first compound 0.00316 µM
  viability, T/C: 83.7%
Second compound 0.0316 µM, first compound 0.01 µM
  viability, T/C: 97.5%
Second compound 0.0316 µM, first compound 0.0316 µM
  viability, T/C: 85.8%
Second compound 0.0316 µM, first compound 0.1 µM
  viability, T/C: 74%
Second compound 0.0316 µM, first compound 0.316 µM
  viability, T/C: 66%
Second compound 0.0316 µM, first compound 1 µM
  viability, T/C: 57.7%
Second compound 0.1 µM, first compound 0.00316 µM
  viability, T/C: 74.5%
Second compound 0.1 µM, first compound 0.01 µM
  viability, T/C: 91.4%
Second compound 0.1 µM, first compound 0.0316 µM
  viability, T/C: 68.9%
Second compound 0.1 µM, first compound 0.1 µM
  viability, T/C: 58.2%
Second compound 0.1 µM, first compound 0.316 µM
  viability, T/C: 62.6%
Second compound 0.1 µM, first compound 1 µM
  viability, T/C: 50.2%
Second compound 0.316 µM, first compound 0.00316 µM
  viability, T/C: 72.4%
Second compound 0.316 µM, first compound 0.01 µM
  viability, T/C: 69.8%
Second compound 0.316 µM, first compound 0.0316 µM
  viability, T/C: 47.7%
Second compound 0.316 µM, first compound 0.1 µM
  viability, T/C: 56.5%
Second compound 0.316 µM, first compound 0.316 µM
  viability, T/C: 42.2%
Second compound 0.316 µM, first compound 1 µM
  viability, T/C: 40.2%
Second compound 1 µM, first compound 0.00316 µM
  viability, T/C: 50.9%
Second compound 1 µM, first compound 0.01 µM
  viability, T/C: 44.5%
Second compound 1 µM, first compound 0.0316 µM
  viability, T/C: 34.1%
Second compound 1 µM, first compound 0.1 µM
  viability, T/C: 35.9%
Second compound 1 µM, first compound 0.316 µM
  viability, T/C: 33.8%
Second compound 1 µM, first compound 1 µM
  viability, T/C: 31.6%
Second compound 3.16 µM, first compound 0.00316 µM
  viability, T/C: 33.6%
Second compound 3.16 µM, first compound 0.01 µM
  viability, T/C: 32.9%
Second compound 3.16 µM, first compound 0.0316 µM
  viability, T/C: 27.6%
Second compound 3.16 µM, first compound 0.1 µM
  viability, T/C: 23.7%
Second compound 3.16 µM, first compound 0.316 µM
  viability, T/C: 26.4%
Second compound 3.16 µM, first compound 1 µM
  viability, T/C: 22.4%
Second compound 10 µM, first compound 0.00316 µM
  viability, T/C: 23.2%
Second compound 10 µM, first compound 0.01 µM
  viability, T/C: 20.7%
Second compound 10 µM, first compound 0.0316 µM
  viability, T/C: 22.2%
Second compound 10 µM, first compound 0.1 µM
  viability, T/C: 22.1%
Second compound 10 µM, first compound 0.316 µM
  viability, T/C: 19.9%
Second compound 10 µM, first compound 1 µM
  viability, T/C: 19.6%
